Measurements as given in US20130052381A1, “POLYEPOXIDES AND EPOXY RESINS AND METHODS FOR THE MANUFACTURE AND USE THEREOF” (priority 2011, published 2013).

Assays:
[1] = target: T1, recombinant human estradiol receptors (rhER) alpha (α) (Homo sapiens, UniProt P03372); assay: competitive radioligand binding assay, rhER alpha; settings: at as high as […]10^−4 molar concentration
T1 sequence (P03372 1-595): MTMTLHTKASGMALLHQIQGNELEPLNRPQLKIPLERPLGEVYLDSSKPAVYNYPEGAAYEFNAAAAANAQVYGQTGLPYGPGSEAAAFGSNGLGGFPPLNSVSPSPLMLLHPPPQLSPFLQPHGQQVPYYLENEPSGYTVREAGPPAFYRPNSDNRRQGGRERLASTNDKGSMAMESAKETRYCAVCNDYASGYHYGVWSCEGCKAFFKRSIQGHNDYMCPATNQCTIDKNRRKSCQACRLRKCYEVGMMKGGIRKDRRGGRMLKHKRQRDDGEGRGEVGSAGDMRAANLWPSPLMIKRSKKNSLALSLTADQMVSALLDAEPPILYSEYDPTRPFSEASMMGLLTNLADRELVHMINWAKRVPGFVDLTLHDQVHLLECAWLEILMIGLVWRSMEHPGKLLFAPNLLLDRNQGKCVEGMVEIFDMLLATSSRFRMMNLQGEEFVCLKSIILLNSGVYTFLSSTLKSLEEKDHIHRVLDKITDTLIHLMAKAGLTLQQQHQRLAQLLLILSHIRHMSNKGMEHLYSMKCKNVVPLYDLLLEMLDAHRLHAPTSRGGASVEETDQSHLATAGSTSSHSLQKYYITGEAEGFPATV

[2] = target: recombinant human estradiol receptors (rhER) beta 1 (β1) (Homo sapiens, UniProt Q92731); assay: competitive radioligand binding assay, rhER beta 1; settings: at as high as […]10^−4 molar concentration

Compound	estradiol displacement at the alpha estradiol receptor [1]	estradiol displacement at the beta estradiol receptor [2]
O=C1c2ccccc2C(c2ccc(O)cc2)(c2ccc(O)cc2)N1c1ccccc1 [Example 4, N-Phenyl Phenolphthalein Bisphenol]	no detectible estradiol displacement	no detectible estradiol displacement
Biphenol [Example 7]	no displacement	
CC(C)(C)c1cc(O)c(C(C)(C)C)cc1O [Example 8, Di t-Butyl Hydroquinone]	no displacement	no displacement
Oc1cccc(O)c1 [Example 5, Resorcinol]	no detectible estradiol displacement	no detectible estradiol displacement
Cc1cc(O)ccc1O [Example 9, Methyl Hydroquinone]		no alpha or beta estradiol displacement
